Experiments:
[1] = test system: Caco-2BBe human enterocyte-like monolayers; test: Permeability of Caco-2 monolayers exposed to menadione (FD4 clearance); assay type: cell-based; conditions: 10 μM apical, menadione 50 μM, 6 hours
Description: Cells. Caco-2BBe human enterocyte-like epithelial cells were obtained from the AMERICAN TYPE CULTURE COLLECTION (Manassas, Va.). Cells were routinely maintained at 37° C. in under a humidified atmosphere containing 8% CO2 in air. The culture medium was DMEM supplemented with 10% FBS, non-essential amino acids supplement (SIGMA-ALDRICH catalogue #M7145), sodium pyruvate (2 mM), streptomycin (0.1 mg/ml), penicillin G (100 U/ml) and human transferrin (0.01 mg/ml). The culture medium was changed 3 times per week.
Measurement of permeability of Caco-2 monolayers. Caco-2BBe cells were plated at a density of 5×10^4 cells/well on permeable filters (0.4 μm pore size) in 12-well bicameral chambers (TRANSWELL, COSTAR, Corning, N.Y.).
Briefly, the medium on the basolateral side was replaced with control medium or medium containing menadione (50 μM final). Medium containing FD4 (25 mg/ml) was applied to the apical chamber. In some cases, one of the gramicidin S-based compounds, XJB-5-131, also was added to the apical side at final concentrations of 0.1, 1, 10 or 100 μM. […] Permeability of the monolayers was expressed as a clearance (pL·h^−1·cm^−2), see Han, X. et al., Proinflammatory cytokines cause NO dependent and independent changes in expression and localization of tight junction proteins in intestinal epithelial cells, SHOCK 19:229-237 (2003). […]

[2] = test system: rats subjected to volume-controlled hemorrhagic shock; test: Survival of rats subjected to volume-controlled hemorrhagic shock; assay type: in vivo, rat
Description: Surgical procedures to obtain vascular access. All study protocols using rats followed the guidelines for the use of experimental animals of the US National Institutes of Health and were approved by the Institutional Animal Care and Use Committee at the University of Pittsburgh.
Male specific pathogen-free Sprague Dawley rats (CHARLES RIVER LABORATORIES, Wilmington, Mass.), weighing 150-250 g, were housed in a temperature-controlled environment with a 12-h light/dark cycle. The rats had free access to food and water. For experiments, rats were anesthetized with intramuscular ketamine HCl (30 mg/kg) and intraperitoneal sodium pentobarbital (35 mg/kg). Animals were kept in a supine position during the experiments. Lidocaine (0.5 ml of a 0.5% solution) was injected subcutaneously to provide local anesthesia at surgical cut-down sites. In order to secure the airway, a tracheotomy was performed and polyethylene tubing (PE 240; BECTON-DICKINSON, Sparks, Md.) was introduced into the trachea. Animals were allowed to breathe spontaneously.
The right femoral artery was cannulated with polyethylene tubing (PE 10). This catheter was attached to a pressure transducer that allowed instantaneous measurement of mean arterial pressure (MAP) during the experiment. For experiments using the pressure-controlled hemorrhagic shock (HS) model, the right jugular vein was exposed, ligated distally, and cannulated with polyethylene tubing (PE 10) in order to withdraw blood. For experiments using the volume-controlled hemorrhagic shock (HS) model, the jugular catheter was used to infuse the resuscitation solution and the right femoral vein, which was cannulated with a silicon catheter (CHRONIC-CATH, NORFOLK MEDICAL, Skokie, Ill.), was used to withdraw blood.
All animals were instrumented within 30 min. Heparin (500 U/kg) was administered immediately after instrumentation through the femoral vein. Animals were placed in a thermal blanket to maintain their body temperature at 37° C. The positioning of the different devices aforementioned was checked postmortem.
Survival of rats subjected to volume-controlled hemorrhagic shock. Following surgical preparation and a 5-min stabilization period to obtain baseline readings, rats were subjected to hemorrhagic shock. Bleeding was carried out in 2 phases.
Initially, 21 ml/kg of blood was withdrawn over 20 min. Immediately thereafter, an additional 12.5 ml/kg of blood was withdrawn over 40 min. […]
Blood pressure was recorded continuously using a commercial strain-gauge transducer, amplifier, and monitor (S90603a, SPACELABS, Redmond, Wash.). […] Hemoglobin concentration [Hb], lactate and glucose concentration were determined using an auto-analyzer (Model ABL 725, […], Westlake, Ohio). […]

## CC(C)C[C@@H](/C=C/[C@H](Cc1ccccc1)C(=O)N1CCC[C@H]1C(=O)N[C@H](C(=O)N[C@@H](CCCNC(=O)OCc1ccccc1)C(=O)NC1CC(C)(C)N([O])C(C)(C)C1)C(C)C)NC(=O)OC(C)(C)C [XJB-5-131]
[1]
  protection against menadione-induced hyperpermeability: significant protection
[2]; 2 μmol/kg i.v.
  rats surviving longer than 3 hours after completion of the hemorrhage protocol: Three of the six
[2]; 2 μmol/kg i.v. infusion during last 20 min of hemorrhage, no resuscitation
  survival versus vehicle-treated rats: survived significantly longer
[2]; 2 μmol/kg i.v., six rats
  rats surviving the whole 6 hour post-bleeding observation period: one
[2]; ~0.1 mg/kg versus TEMPOL 30 mg/kg bolus+30 mg/kg per h
  beneficial dose, times smaller than the TEMPOL dose of previous studies: about 300 fold

From patent US9402839B2, “Selective targeting agents for mitochondria” (University of Pittsburgh—Of the Commonwealth System of …, priority 2006, dated 2016)
